Results published in patent US20050222114A1, “Use of new etonogestrel esters” (priority 2002, published 2005).
Where two headings read alike, the source gives them in different places.

What was measured:
[1] = Solubility in solvents determined visually (appearance); assay type: physicochemical; conditions: for solubility at two times the desired concentration: all four solvents tested, desired concentration 50 mg/ml etonogestrel-undecanoate, 100 mg/ml MENT-undecanoate
Description: To determine the solubility and viscosity of MENT undecanoate and etonogestrel undecanoate, four different solvents were used: • ethyl undecanoate • ethyl undecanoate+50% benzyl benzoate • arachis oil • arachis oil+50% benzyl benzoate
Using these solvents, the following solutions were prepared: • 100 mg/ml etonogestrel undecanoate in the different solvents • 50 mg/ml etonogestrel undecanoate in the different solvents • 200 mg/ml MENT undecanoate in the different solvents • 100 mg/ml MENT undecanoate in the different solvents • 50 mg/ml etonogestrel undecanoate+100 mg/ml MENT undecanoate in the different solvents
The two combined solvents were prepared by addition of 50 gram of ethyl undecanoate or arachis oil to 50 gram of benzyl benzoate. […] The arachis oil+50% benzyl benzoate solution was not filtered.
The solubility of the compounds in the solvents was determined visually. The viscosity was determined using a Brookfield model DV-III. The density of the solutions was determined using a Mettler Toledo DA-100M density meter.

[2] = Pharmacokinetics of androgen esters after one s.c. injection in castrated rabbits (plasma MENT or testosterone by LC-MSMS); assay type: in vivo; conditions: castrated rabbit, one s.c. injection 20 mg/kg in arachis oil (100 mg/ml)
Description: With LC-MSMS, the amount of parent compound (testosterone or MENT) was determined in these samples.

[3] = Pharmacokinetics of etonogestrel esters after one i.m. injection in rabbits (plasma etonogestrel by LC-MSMS); conditions: rabbit; for initial peak level of etonogestrel in plasma: one i.m. injection 20 mg/kg in arachis oil (40 mg/ml)
Description: (§1) For the determination of the pharmacokinetic profile of the different etonogestrel-esters after parenteral application, i.m. application in the castrated rabbit model was chosen instead of s.c. Briefly, rabbits were injected once (day 1) with indicated etonogestrel-esters at 20 mg/kg in arachis oil (with a concentration of 40 mg/ml). At day 1, 2, 3, 4, 5, 6, 7, 8, 10, 12, 14, 21, 28, 35, 49, 63, 77, 92, 106, 120 and 133 blood was collected from the ear arteria, in EDTA-containing tubes. EDTA plasma was prepared (1500 g, 15 min) and stored at −20° C. With LC-MSMS the amount of parent compound (etonogestrel) was determined in these samples. The lower limit of this new assay is 0.5 nmol/l, from 0-250 nmol/l a linear curve was obtained with a correlation coefficient of 0,9998.

[4] = rabbit, in vivo, 20 mg/kg
Description: as §1

[5] = hypogonadal men, one IM injection, FIG. 5; cited from earlier work
[6] = one i.m. injection 20 mg/kg in arachis oil

## CCCCCCCCCCC(=O)O[C@H]1CC[C@H]2[C@H]3[C@H](CC[C@]12C)[C@H]1CCC(=O)C=C1C[C@H]3C [MENT-undecanoate]
[1]; 200 mg/ml in arachis oil
  heating necessary to dissolve: approximately 50 °C
[1]
  solubility at two times the desired concentration: could be dissolved at two times the desired concentration

## CCCCCCC(=O)O[C@H]1CC[C@H]2[C@@H]3CCC4=CC(=O)CC[C@]4(C)[C@H]3CC[C@]12C [Testosterone-enanthate]
[2]
  pharmacokinetic profile of released MENT or testosterone (in words): high peak of testosterone

## C#CC1(OC(=O)CCCCCCCCC)CCC2C3CCC4=CC(=O)CCC4C3C(=C)CC21CC (stereo not shown) [etonogestrel decanoate]
[3]
  initial peak level of etonogestrel in plasma: 24 nmol/L

## C#C[C@]1(OC(=O)CCCCCCCCCCC)CC[C@H]2[C@@H]3CCC4=CC(=O)CC[C@@H]4[C@H]3C(=C)C[C@@]21CC [etonogestrel dodecanoate]
[3]
  initial peak level of etonogestrel in plasma: 9 nmol/L

## C#C[C@]1(OC(=O)CCCCCC)CC[C@H]2[C@@H]3CCC4=CC(=O)CC[C@@H]4[C@H]3C(=C)C[C@@]21CC [etonogestrel heptanoate]
[3]
  initial peak level of etonogestrel in plasma: 120 nmol/L

## C#C[C@]1(OC(=O)CCCCCCCC)CC[C@H]2[C@@H]3CCC4=CC(=O)CC[C@@H]4[C@H]3C(=C)C[C@@]21CC [etonogestrel nonanoate]
[3]; [6]
  pharmacokinetic profile of released etonogestrel (in words): lower peak levels and extended duration with serum levels of etonogestrel above 1 nmol/l

## C#C[C@]1(OC(=O)CCCCCCCCCCCC)CC[C@H]2[C@@H]3CCC4=CC(=O)CC[C@@H]4[C@H]3C(=C)C[C@@]21CC [etonogestrel tridecanoate]
[3]; [6]
  pharmacokinetic profile of released etonogestrel (in words): no initial levels of etonogestrel were observed

## C#C[C@]1(OC(=O)CCCCCCCCCC)CC[C@H]2[C@@H]3CCC4=CC(=O)CC[C@@H]4[C@H]3C(=C)C[C@@]21CC [etonogestrel undecanoate]
[3]; [6]
  duration of action: etonogestrel levels above 1 nmol/l: more than 92 days
[3]
  initial peak level of etonogestrel in plasma: 13 nmol/L
[1]
  solubility at two times the desired concentration: could be dissolved at two times the desired concentration

## C#C[C@]1(O)CC[C@H]2[C@@H]3CCC4=CC(=O)CC[C@@H]4[C@H]3C(=C)C[C@@]21CC [etonogestrel, (17α)-13-ethyl-17-hydroxy-11-methylene-18,19-dinorpregn-4-en-20-yn-3-one]
[4]
  initial peak level of etonogestrel in plasma: 200 nmol/L

## CCCCCCCCCCC(=O)O[C@H]1CC[C@H]2[C@@H]3CCC4=CC(=O)CC[C@]4(C)[C@H]3CC[C@]12C [testosterone undecanoate]
[5]
  pharmacokinetics of serum testosterone in humans (in words): low initial release and steady-state levels of long duration
